Results reported in patent US5374655A, “Methods for the synthesis of monofucosylated oligosaccharides terminating in di-N-acetyllactosaminyl structures” (Alberta Research Council, priority 1992, dated 1994).

Legend:
[1] = system: α(13/4)fucosyltransferase; assay: Fucosyltransferase assay: relative rates of fucose transfer onto the 3-hydroxy of GlcNAc in βGal(1-4)βGlcNAc-OR; type: biochemical, human; details: fucosylation of disaccharide glycosides βGal(1-4)βGlcNAc-OR with different substituents at the 6-position of galactose
Description: The βGlcNAc α(13/4)fucosyltranferase was purified from human milk, as reported.^4 The enzymatic reactions were carried out at 37° C. in a plastic tube using a sodium cacodylate buffer (100 mM, pH 6.5), MnCl2 (10 mM), ATP (1.6 mM), NaN3 (1.6 mM). The reaction products were isolated and purified as indicated above.
Experiments were conducted to determine the relative rates of transfer of fucosylation onto the 3-hydroxy of the GlcNAc in disaccharide glycosides βGal(1-4)βGlcNAc-OR having different substituents at the 6-position of the galactose. Fucosyltransferase assays were conducted with α(13/4)fucosyltransferase in a manner similar to that described in the art^4 and gave the following results: […]

Balb/c mice [2] = assay: Mouse footpad swelling assay, DTH inflammatory response to L111 S-Layer protein; type: in vivo; set-up: INCREASE IN FOOTPAD SWELLING: unit not given here
Description: (§1) DTH inflammatory responses were measured using the mouse footpad swelling assay as described by Smith and Ziola^31. […] Seven days later, each group of mice was footpad-challenged with 10 μg of L-111 S-Layer protein. The resulting inflammatory footpad swelling was measured with a Mitutoyo Engineering micrometer 24 hours after challenge.
To assess the effect of hexasaccharide glycoside 5a on the inflammatory DTH response, groups of mice received 100 μg of this compound, injected into the tail vein, 5 hours after challenge. Control groups received 100 μL of phosphate-buffered saline (PBS).

Balb/c mice [3] = assay: Persistence of suppression of the DTH inflammatory response, rechallenge 11 weeks after primary immunization; type: in vivo, mouse; details: rechallenge with L111 S-Layer protein 11 weeks after primary immunization
Description: as §1
i. The identical groups of mice treated with hexasaccharide glycoside 5a in Example 7 were rechallenged with L111 S-Layer protein 11 weeks after primary immunization.

ELAM-1 = ELAM-1 dependent cell adhesion to activated vascular endothelium (U937 or HL60 binding to TNFα-stimulated HUVECs); type: cell-based, human; details: HUVECs stimulated with TNFα (10 ng/ml); U937 or HL60 cells
Description: This example examines whether hexasaccharide 5a could inhibit ELAM-1 dependent cell adhesion to activated vascular endothelium. Specifically, an vitro cell binding assay was preformed as described by Lowe et al^33. Briefly, human umbilical vein endothelial cells (HUVECs purchased from Cell Systems, Seattle, Wash., USA) were stimulated with TNFα (10 ng/ml) to express ELAM-1.

Relative Rate of Transfer [1] | SMILES | INCREASE IN FOOTPAD SWELLING (Balb/c mice [2]; 100 μg injected into the tail vein 5 hours after challenge, swelling measured 24 hours after challenge) | footpad swelling as compared to the control mice (Balb/c mice [2]; 100 μg into the tail vein 5 hours after challenge, 24 hours after challenge) | footpad swelling relative to that exhibited in mice treated with PBS (Balb/c mice [3]) | reduction in footpad swelling (Balb/c mice [3]; versus PBS control) | inhibition of ELAM-1 dependent binding to the HUVECs (ELAM-1)
100 | COC(=O)CCCCCCCCO[C@@H]1O[C@H](CO)[C@@H](O[C@@H]2O[C@H](CO)[C@H](O)[C@H](O)[C@H]2O)[C@H](O)[C@H]1NC(C)=O [--OH] | – | – | – | – | –
9 | COC(=O)CCOCCO[C@@H]1O[C@H](CO)[C@@H](O[C@@H]2O[C@H](C)[C@H](O)[C@H](O)[C@H]2O)[C@H](O)[C@H]1NC(C)=O [H] | – | – | – | – | –
– | COC(=O)CCCCCCCCO[C@@H]1O[C@H](CO)[C@@H](O[C@@H]2O[C@H](CO)[C@H](O)[C@H](O[C@@H]3O[C@H](CO)[C@@H](O[C@@H]4O[C@H](CO)[C@H](O)[C@H](O[C@]5(C(=O)O)C[C@H](O)[C@@H](NC(C)=O)[C@H]([C@H](O)[C@H](O)CO)O5)[C@H]4O)[C@H](O)[C@H]3NC(C)=O)[C@H]2O)[C@H](O[C@@H]2O[C@@H](C)[C@@H](O)[C@@H](O)[C@@H]2O)[C@H]1NC(C)=O [hexasaccharide glycoside 5a, 8-Methoxycarbonyloctyl (5-Acetamido-3,5-dideoxy-α-D-glycero-D-galacto-2-nonulopyranosylonicacid)-(2-3)--O--β-D-galactopyranosyl-(1-4)--O-- 2-acetamido-2-deoxy-β-D-glucopyranosyl-(1-3)--O--β-D-galactopyranosyl-(1-4)--O--[α-L-fucopyranosyl-(1-3)--O--]2-acetamido-2-deoxy-β-D-glucopyranoside] | 1.5 | less than 50% | about 60% | about 40% | inhibits ELAM-1 dependent binding to the HUVECs
